In brackets after ≈: the same amount, converted by molar mass. Several values for one entry are separate records, joined by “and”; a condition that tells them apart may be missing. Equal values may be shown once. Read-outs that look alike come from different tables or passages of the source.
Legend:
[1] = Permeability Papp (AB) MDR1/MDCKII; conditions: for papp_a_to_b_mean / perc_recovery_a_to_b_mean / papp_b_to_a_mean / efflux_ratio / perc_recovery_b_to_a_mean: In vitro MDR1-MDCKII permeability; for papp_a_to_b_mean: A to B; for perc_recovery_a_to_b_mean / perc_recovery_a_to_b_inhibitor_mean: recovery A to B; for papp_b_to_a_mean: B to A; for perc_recovery_b_to_a_mean / perc_recovery_b_to_a_inhibitor_mean: recovery B to A; for perc_recovery_a_to_b_inhibitor_mean / perc_recovery_b_to_a_inhibitor_mean: MDR1-MDCKII
[2] = test system: SARS-CoV-2, isolate USA-WA1/2020; assay: microbe, parasite or virus in culture; assay type: cell-based; conditions: HeLa-ACE2 SARS-CoV-2 antiviral effect without P-gp inhibitor; for perc_max_measured: maximum measured response of dose series; for perc_min_measured: minimum measured response of dose series; for EC50: read-out: ec50; for EC90: read-out: ec90
in vitro [3] = conditions: human, hela-ace2 cells, 50.0
SARS-CoV-2 = assay: Antiviral effect in iPSC-derived pneumocyte system; assay type: cell-based; conditions: iPSC pneumocytes SARS-CoV-2 antiviral effect; for perc_max_measured: maximum measured response of dose series; for perc_min_measured: minimum measured response of dose series
[4] = Hepatic microsomal stability, HLM; assay type: in vitro ADME, human; conditions: In vitro human liver microsomal stability; for perc_remaining_no_cofactor: no cofactor
iPSC pneumocytes = iPSC pneumocytes cytotoxicity; assay type: cell-based; conditions: for perc_max_measured: highest measured response of the dose series; for perc_min_measured: lowest measured response of the dose series
From the text: Supplement media-1.zip/Cytotoxicity.csv, table | column: cc10; cc50; perc_min_measured; perc_max_measured

in vitro [5] = assay: in vitro; set-up: Cytotoxicity in iPSC-derived pneumocytes, CC50; conditions: human, ipsc-derived pneumocytes, read-out: 50.0
From the text: Finally, we consider the hypothesis that interferon response triggers ADP-ribosylation, thus profiling the compounds in enhanced and physiologically relevant interferon environments could reveal detectable antiviral effects. […] Furthermore, HeLa-ACE2 cells, and all cancerous cell lines, display defective innate immune response ([1]). As such, we also assess our compound in a primary-like iPSC-derived pneumocyte system (Figure 7C), showing likewise a lack of antiviral activity in this physiologically relevant innate immunity system.

HeLa-ACE2 cells = conditions: for perc_max_measured: highest measured response of the dose series; for perc_min_measured: lowest measured response of the dose series
LogD = conditions: pH 7.4; In vitro LogD
[6] = In vitro kinetic solubility; conditions: In vitro kinetic solubility, ph 7.4
[7] = Hepatic microsomal stability, MLM; assay type: in vitro ADME
[8] = protocol iPSC pneumocytes cytotoxicity
[9] = protocol HeLa-ACE2 cytotoxicity
[10] = In vitro mouse liver microsomal stability
[11] = In vitro mouse liver microsomal stability, no cofactor

Structure (SMILES) | perc_max_measured [2] | perc_min_measured [2] | EC50 [2] | EC90 [2] | CC50 at 24 h (in vitro [3]) [µM] | perc_max_measured (SARS-CoV-2) | perc_min_measured (SARS-CoV-2) | clint [4] [µL/min/mg] | perc_remaining [4] [%] | t_half [4] [min] | perc_remaining_no_cofactor [4] [%] | perc_max_measured (HeLa-ACE2 cells; [9]) | perc_min_measured (HeLa-ACE2 cells; [9]) | logd (LogD) | solubility_mean [6] [µM] | clint [7, 10] [µL/min/mg] | perc_remaining [7, 10] [%] | t_half [7, 10] [min] | EC50 (SARS-CoV-2) [µM] | EC90 (SARS-CoV-2) [µM] | other results
CC(C)[C@@H](Nc1ncnc2[nH]c(-c3cnn(C)c3C#N)cc12)c1ccc2c(c1)OCCO2 (racemic) [ASAP-0008275] | 109.522% | 3.811% and 0.0% | 1.73 µM and 1.72 µM | 4.31 µM and 4.23 µM | > 50 | 108.15% and 116.315% | 1.229% and 8.563% | 74.0 | 25.0 | 22.6 | 111.0 | 136.373% | 77.442% | 3.0 | 17 (≈ 7.3 µg/mL) | 218.0 | 3.0 | 7.7 |  |  | papp_a_to_b_mean ([1]; mean): 4.2 ×10⁻⁶ cm/s; perc_recovery_a_to_b_mean ([1]; mean): 36.0%; CC50 (iPSC pneumocytes; [8]): > 50 µM; cc10 (iPSC pneumocytes; [8]): 13.408 µM; perc_max_measured (iPSC pneumocytes; [8]): 110.873% and 99.023%; perc_min_measured (iPSC pneumocytes; [8]): 69.382% and 78.095%; CC50 (in vitro [5]; ASAP-0008327-001=ASAP-0008275-001): > 50 µM; CC50 (HeLa-ACE2 cells; [9]): > 50 µM; cc10 (HeLa-ACE2 cells; [9]): > 50.0 µM; perc_remaining_no_cofactor ([7]; In vitro mouse liver microsomal stability; no cofactor): 97.0%
CC(C)[C@@H](Nc1ncnc2[nH]c(-c3cnn(C)c3C#N)cc12)c1ccc2c(c1)S(=O)(=O)CCC2 (single isomer, unassigned) [ASAP-0011147] | 114.163% | 4.545% | 3.51 µM | 13.2 µM | > 20 | 75.192% | 0.111% | 516.0 | 0.0 | 3.2 | 101.0 | 92.283% | 75.829% | 3.7 | 26 (≈ 12.4 µg/mL) | 709.0 | 0.0 | 2.4 | 0.411 | 13 | papp_a_to_b_mean ([1]; mean): 1.82 ×10⁻⁶ cm/s; papp_a_to_b_mean ([1]; no inhibitor): 0.087 ×10⁻⁶ cm/s; papp_b_to_a_mean ([1]; no inhibitor): 7.5 ×10⁻⁶ cm/s; efflux_ratio ([1]; no inhibitor): 85.7; perc_recovery_a_to_b_mean ([1]; mean): 54.6%; perc_recovery_a_to_b_mean ([1]; no inhibitor): 82.5%; perc_recovery_b_to_a_mean ([1]; no inhibitor): 96.5%; perc_recovery_a_to_b_inhibitor_mean ([1]; with inhibitor Verapamil): 63.2%; perc_recovery_b_to_a_inhibitor_mean ([1]; with inhibitor Verapamil): 72.3%; CC50 (iPSC pneumocytes): > 50 µM; cc10 (iPSC pneumocytes): > 50.0 µM; perc_max_measured (iPSC pneumocytes): 111.987%; perc_min_measured (iPSC pneumocytes): 95.623%; CC50 (in vitro [5]; ASAP-0008327-001=ASAP-0011147-001): > 50 µM; CC50 (HeLa-ACE2 cells; [9]): > 20 µM; cc10 (HeLa-ACE2 cells; [9]): > 20.0 µM; perc_remaining_no_cofactor [7, 11]: 106.0%
CC(C)[C@H](Nc1ncnc2[nH]c(-c3cnn(CC(N)=O)c3)cc12)c1ccc2c(c1)S(=O)(=O)CCC2 (single isomer, unassigned) [ASAP-0011428] | 108.399% | 92.21% | > 20 µM | > 20 µM | > 20 | 119.318% | 70.174% | 240.0 | 2.0 | 7.0 | 115.0 | 96.287% | 76.492% | 2.1 | 338 (≈ 167 µg/mL) | 39.0 | 53.0 | 42.6 | > 50 | > 50 | papp_a_to_b_mean ([1]; mean): 1.98 ×10⁻⁶ cm/s; papp_a_to_b_mean ([1]; no inhibitor): 0.0832 ×10⁻⁶ cm/s; papp_b_to_a_mean ([1]; no inhibitor): 0.072 ×10⁻⁶ cm/s; efflux_ratio ([1]; no inhibitor): 0.9; perc_recovery_a_to_b_mean ([1]; mean): 85.9%; perc_recovery_a_to_b_mean ([1]; no inhibitor): 65.5%; perc_recovery_b_to_a_mean ([1]; no inhibitor): 72.9%; perc_recovery_a_to_b_inhibitor_mean ([1]; with inhibitor Verapamil): 73.2%; perc_recovery_b_to_a_inhibitor_mean ([1]; with inhibitor Verapamil): 79.8%; CC50 (iPSC pneumocytes): > 50 µM; cc10 (iPSC pneumocytes): > 50.0 µM; perc_max_measured (iPSC pneumocytes): 106.229%; perc_min_measured (iPSC pneumocytes): 92.999%; CC50 (in vitro [5]; ASAP-0008327-001=ASAP-0011428-001): > 50 µM; CC50 (HeLa-ACE2 cells; [9]): > 20 µM; cc10 (HeLa-ACE2 cells; [9]): > 20.0 µM; perc_remaining_no_cofactor [7, 11]: 98.0%
CC(C)[C@@H](Nc1ncnc2[nH]c(-c3cnn(CC(N)=O)c3)cc12)c1ccc2c(n1)OCCO2 (single isomer, unassigned) [ASAP-0012315] | 122.738% | 101.22% | > 20 µM | > 20 µM |  | 94.962% | 56.467% | 18.0 | 77.0 | 91.8 | 95.0 | 91.832% | 81.293% | 2.4 | 395 (≈ 177 µg/mL) | 9.0 | 90.0 | 182.3 | > 50 | > 50 | papp_b_to_a_mean ([1]; no inhibitor): 2.3 ×10⁻⁶ cm/s and 3.5 ×10⁻⁶ cm/s; perc_recovery_a_to_b_mean ([1]; no inhibitor): 59.0% and 72.1% and 66.1%; perc_recovery_b_to_a_mean ([1]; no inhibitor): 78.3% and 92.2%; perc_recovery_a_to_b_inhibitor_mean ([1]; with inhibitor Cyclosporin A): 64.5%; perc_recovery_a_to_b_inhibitor_mean ([1]; with inhibitor Verapamil): 96.8%; perc_recovery_b_to_a_inhibitor_mean ([1]; with inhibitor Cyclosporin A): 57.4%; perc_recovery_b_to_a_inhibitor_mean ([1]; with inhibitor Verapamil): 85.3%; CC50 (iPSC pneumocytes): > 50 µM; cc10 (iPSC pneumocytes): > 50.0 µM; perc_max_measured (iPSC pneumocytes): 105.354%; perc_min_measured (iPSC pneumocytes): 100.058%; CC50 (in vitro [5]; ASAP-0008327-001=ASAP-0012315-001): > 50 µM; perc_remaining_no_cofactor [7, 11]: 102.0%
CC(C)[C@@H](Nc1ncnc2[nH]c(C(=O)N[C@H]3CCN(C)C3)cc12)c1ccc2c(c1)S(=O)(=O)CCC2 (single isomer, unassigned) [ASAP-0012336] | 102.123% | 84.181% | > 20 µM | > 20 µM |  | 114.501% | 59.767% | 26.0 | 66.0 | 64.0 | 107.0 | 90.418% | 77.593% | 1.5 | 392 (≈ 195 µg/mL) | 4.0 | 92.0 | 433.8 | > 50 | > 50 | papp_b_to_a_mean ([1]; no inhibitor): 0.038 ×10⁻⁶ cm/s; efflux_ratio ([1]; no inhibitor): 0.5; perc_recovery_a_to_b_mean ([1]; no inhibitor): 53.5% and 74.5%; perc_recovery_b_to_a_mean ([1]; no inhibitor): 66.7%; perc_recovery_a_to_b_inhibitor_mean ([1]; with inhibitor Verapamil): 95.9%; perc_recovery_b_to_a_inhibitor_mean ([1]; with inhibitor Verapamil): 77.9%; CC50 (iPSC pneumocytes): > 50 µM; cc10 (iPSC pneumocytes): > 50.0 µM; perc_max_measured (iPSC pneumocytes): 106.87%; perc_min_measured (iPSC pneumocytes): 91.721%; CC50 (in vitro [5]; ASAP-0008327-001=ASAP-0012336-001): > 50 µM; CC50 (HeLa-ACE2 cells; [9]): > 20 µM; cc10 (HeLa-ACE2 cells; [9]): > 20.0 µM; perc_remaining_no_cofactor [7, 11]: 92.0%
Cc1ncc(-c2cc3c(N[C@@H](c4ccc5c(c4)OCCO5)C(C)C)ncnc3[nH]2)cn1 [ASAP-0008490] | 95.537% and 100.014% |  | 4.51 µM | > 20 µM | > 20 | 160.084% | 9.251% |  |  |  |  | 110.055% and 97.495% | 79.698% and 83.505% |  |  |  |  |  | 15.7 | 36 | CC50 (iPSC pneumocytes; [8]): > 50 µM; cc10 (iPSC pneumocytes; [8]): > 50.0 µM; perc_max_measured (iPSC pneumocytes; [8]): 94.665%; perc_min_measured (iPSC pneumocytes; [8]): 63.131%; CC50 (in vitro [5]; ASAP-0008327-001=ASAP-0008490-001): > 50 µM; CC50 (HeLa-ACE2 cells): > 20 µM; cc10 (HeLa-ACE2 cells): > 20.0 µM

— paper doi:10.1101/2024.08.19.608619, “Discovery of potent SARS-CoV-2 nsp3 macrodomain inhibitors uncovers lack of translation to cellular antiviral response” (bioRxiv, 2024)
